According to ChEMBL document CHEMBL5537119 (Eur J Med Chem, 2024):

Experiments:
[1] = biological target: T1, Protein deacetylase HDAC6 (Homo sapiens, UniProt Q9UBN7); experiment: Inhibition of human recombinant HDAC6 using Boc-Lys(Ac)-AMC as substrate preincubated for 5 mins followed by substrate addition and measured after 90 mins by fluorescence based microplate reader analysis
T1 sequence (Q9UBN7 whole entry): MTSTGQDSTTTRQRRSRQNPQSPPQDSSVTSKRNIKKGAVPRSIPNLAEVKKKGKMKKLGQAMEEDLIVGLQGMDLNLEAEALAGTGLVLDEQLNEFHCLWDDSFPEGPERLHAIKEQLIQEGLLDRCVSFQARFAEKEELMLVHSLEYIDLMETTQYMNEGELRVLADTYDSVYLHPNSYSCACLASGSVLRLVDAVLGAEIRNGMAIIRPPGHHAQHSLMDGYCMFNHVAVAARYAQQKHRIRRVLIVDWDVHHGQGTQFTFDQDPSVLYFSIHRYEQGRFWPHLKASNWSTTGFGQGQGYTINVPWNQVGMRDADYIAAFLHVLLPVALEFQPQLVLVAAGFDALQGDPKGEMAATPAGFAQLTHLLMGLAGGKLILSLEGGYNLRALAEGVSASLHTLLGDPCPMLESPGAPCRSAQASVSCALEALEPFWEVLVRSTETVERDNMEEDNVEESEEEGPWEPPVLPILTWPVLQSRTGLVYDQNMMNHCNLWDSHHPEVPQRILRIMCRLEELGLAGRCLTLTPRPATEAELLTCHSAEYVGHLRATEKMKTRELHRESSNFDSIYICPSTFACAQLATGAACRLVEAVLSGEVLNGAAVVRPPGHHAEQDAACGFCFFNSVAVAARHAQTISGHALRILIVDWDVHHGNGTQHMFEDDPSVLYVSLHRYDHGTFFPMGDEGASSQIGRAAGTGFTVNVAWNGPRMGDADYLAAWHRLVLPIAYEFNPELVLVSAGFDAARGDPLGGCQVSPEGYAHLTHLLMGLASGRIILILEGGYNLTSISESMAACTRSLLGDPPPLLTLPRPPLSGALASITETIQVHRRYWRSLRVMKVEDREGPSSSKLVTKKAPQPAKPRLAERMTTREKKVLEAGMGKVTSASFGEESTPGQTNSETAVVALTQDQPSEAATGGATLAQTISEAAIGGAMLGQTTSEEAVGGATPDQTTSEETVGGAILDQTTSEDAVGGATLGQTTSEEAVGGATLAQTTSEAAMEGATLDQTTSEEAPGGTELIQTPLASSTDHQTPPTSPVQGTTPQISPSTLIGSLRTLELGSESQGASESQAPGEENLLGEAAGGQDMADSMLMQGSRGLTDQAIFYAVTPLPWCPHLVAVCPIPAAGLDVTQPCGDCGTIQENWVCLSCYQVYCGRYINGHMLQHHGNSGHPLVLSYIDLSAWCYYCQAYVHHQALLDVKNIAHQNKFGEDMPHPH

Histone deacetylase 4 = Histone deacetylase 4 (Homo sapiens, UniProt P56524); experiment: Inhibition of human recombinant TEV-8His-tagged HDAC4 (648 to 1057 residues) expressed in Escherichia coli (DE3) Rosetta cells using Boc-Lys-(Tfa)-AMC as substrate preincubated for 5 mins followed by substrate addition and measured after 90 mins by fluorescence based microplate reader analysis
Histone deacetylase 4, sequence (P56524 whole entry, the tested form may be a part): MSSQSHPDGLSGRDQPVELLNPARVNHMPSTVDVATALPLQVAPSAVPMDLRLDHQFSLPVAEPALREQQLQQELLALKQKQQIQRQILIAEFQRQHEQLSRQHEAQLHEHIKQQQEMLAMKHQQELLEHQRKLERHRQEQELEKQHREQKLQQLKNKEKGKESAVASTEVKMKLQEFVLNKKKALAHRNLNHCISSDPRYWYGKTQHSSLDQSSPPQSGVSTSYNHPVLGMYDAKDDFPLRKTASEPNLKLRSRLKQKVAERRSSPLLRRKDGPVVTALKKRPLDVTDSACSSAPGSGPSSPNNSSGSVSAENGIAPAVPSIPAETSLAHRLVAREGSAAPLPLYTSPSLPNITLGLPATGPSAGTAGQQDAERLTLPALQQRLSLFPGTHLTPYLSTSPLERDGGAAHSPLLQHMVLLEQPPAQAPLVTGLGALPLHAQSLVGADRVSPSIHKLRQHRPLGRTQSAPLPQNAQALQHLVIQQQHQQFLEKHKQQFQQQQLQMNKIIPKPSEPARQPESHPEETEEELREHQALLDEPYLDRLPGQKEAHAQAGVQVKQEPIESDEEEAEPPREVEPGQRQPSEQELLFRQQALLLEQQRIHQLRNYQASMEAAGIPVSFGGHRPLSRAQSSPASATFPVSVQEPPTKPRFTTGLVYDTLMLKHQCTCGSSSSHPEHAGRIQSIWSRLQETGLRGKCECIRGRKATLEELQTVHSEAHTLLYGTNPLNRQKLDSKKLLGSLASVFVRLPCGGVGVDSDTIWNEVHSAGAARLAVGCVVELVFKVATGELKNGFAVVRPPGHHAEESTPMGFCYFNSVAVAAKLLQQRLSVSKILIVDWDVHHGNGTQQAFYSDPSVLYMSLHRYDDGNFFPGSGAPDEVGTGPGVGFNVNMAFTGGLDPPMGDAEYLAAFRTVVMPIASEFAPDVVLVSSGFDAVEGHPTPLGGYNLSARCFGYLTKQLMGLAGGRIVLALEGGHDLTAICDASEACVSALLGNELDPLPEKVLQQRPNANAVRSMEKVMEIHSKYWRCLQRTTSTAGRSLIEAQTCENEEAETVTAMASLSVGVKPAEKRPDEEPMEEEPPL

What does the source list for O=C(NOCc1coc(-c2ccccc2)n1)c1ccc(-c2noc(C(F)(F)F)n2)cc1?
IC50 [1]: > 100000 nM; IC50 (Histone deacetylase 4): 118 nM
